# Columns and labels:
# sugar beet = test: Test B pre/postemergence sugar beet; assay type: in vivo, Beta vulgaris
# How it was run: (§1)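 Test chemicals in a non-phytotoxic solvent mixture with surfactant were sprayed preemergence onto planted seeds and postemergence onto plants 2 to 18 cm tall (1- to 4-leaf stage). After twelve to sixteen days in a greenhouse, injury was visually rated against untreated controls from 0 (no effect) to 10 (complete control).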
# rape = test: Test B pre/postemergence rape; assay type: in vivo, Brassica napus
# How it was run: as §1
# duck salad = test: Test B flood test duck salad; assay type: in vivo, Heteranthera limosa
# How it was run: (§2)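 Flood test on plants grown to the 2-leaf stage; treated plants kept in greenhouse twelve to sixteen days, then visually rated against controls on a 0 (no effect) to 10 (complete control) scale.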
# velvetleaf = test: Test B pre/postemergence velvetleaf; assay type: in vivo, Abutilon theophrasti
# How it was run: as §1
# smallflower flatsedge = test: Test B flood test smallflower flatsedge; assay type: in vivo, Cyperus difformis
# How it was run: as §2
# morningglory = test: Test B pre/postemergence morningglory; assay type: in vivo, Ipomoea hederacea
# How it was run: as §1
# soybean = test: Test B pre/postemergence soybean; assay type: in vivo, Glycine max
# How it was run: as §1
# blackgrass = test: Test B pre/postemergence blackgrass; assay type: in vivo, Alopecurus myosuroides
# How it was run: as §1
# wild oat = test: Test B pre/postemergence wild oat; assay type: in vivo, Avena fatua
# How it was run: as §1
# pigweed = test: Test B pre/postemergence pigweed; assay type: in vivo, Amaranthus retroflexus
# How it was run: as §1
# wheat = test: Test B pre/postemergence wheat; assay type: in vivo, Triticum aestivum
# How it was run: as §1
# giant foxtail = test: Test B pre/postemergence giant foxtail; assay type: in vivo, Setaria faberii
# How it was run: as §1
# purple nutsedge = test: Test B pre/postemergence purple nutsedge; assay type: in vivo, Cyperus rotundus
# How it was run: as §1
# bedstraw = test: Test B pre/postemergence bedstraw; assay type: in vivo, Galium aparine
# How it was run: as §1
# bamyardgrass = test: Test B flood test barnyardgrass; assay type: in vivo, Echinochloa crus-galli
# How it was run: as §2
# rice = test: Test B flood test rice; assay type: in vivo, Oryza sativa
# How it was run: as §2
# [1] = Preemergence, Rate 62 g/ha, scale of 0 to 10 where 0 is no effect and 10 is complete control
# [2] = Preemergence, Rate 250 g/ha, scale of 0 to 10 where 0 is no effect and 10 is complete control
# [3] = Preemergence, Rate 500 g/ha, scale of 0 to 10 where 0 is no effect and 10 is complete control
# [4] = Rate 62 g/ha, Postemergence, scale 0 to 10 (0 no effect, 10 complete control)
# [5] = Rate 125 g/ha, Postemergence, scale of 0 to 10 where 0 is no effect and 10 is complete control
# [6] = Rate 125 g/ha, Preemergence, scale of 0 to 10 where 0 is no effect and 10 is complete control
# [7] = Rate 250 g/ha, Postemergence, scale of 0 to 10 where 0 is no effect and 10 is complete control
# [8] = Rate 62 g/ha, headed Pre-emergence (flood test species), scale 0 to 10 (0 no effect, 10 complete control)
# [9] = Rate 125 g/ha, Pre-emergence, flood test species, scale 0 to 10 where 0 is no effect and 10 is complete control
# [10] = Rate 250 g/ha, Pre-emergence, flood-test species, scale 0 to 10, 0 is no effect, 10 is complete control
# [11] = Rate 500 g/ha, Pre-emergence, flood test species, scale 0 to 10 (0 no effect, 10 complete control)
# [12] = Rate 500 g/ha, Postemergence, scale 0 to 10, 0 no effect, 10 complete control
smiles,measurement,setting,value
CC(C)N(C(=O)n1oc(=O)n(C[Si](C)(C)C)c1=O)c1ccc(F)cc1 [Compound 294],Sugarbeets plant response rating,sugar beet; [1],0
same,Sugarbeets plant response rating,sugar beet; [2],0
same,"Plant response rating, Sugarbeets",sugar beet; [3],2
same,Sugarbeets plant response rating,sugar beet; [4],0
same,Sugarbeets plant response rating,sugar beet; [5],0
same,Sugarbeets plant response rating,sugar beet; [6],0
same,"Plant response rating, Sugarbeets",sugar beet; [7],0
same,Rape plant response rating,rape; [1],0
same,Rape plant response rating,rape; [2],0
same,"Plant response rating, Rape",rape; [3],3
same,Rape plant response rating,rape; [4],0
same,Rape plant response rating,rape; [5],0
same,Rape plant response rating,rape; [6],0
same,"Plant response rating, Rape",rape; [7],2
same,Ducksalad plant response rating,duck salad; [8],0
same,Ducksalad plant response rating,duck salad; [9],0
same,Ducksalad plant response rating,duck salad; [10],0
same,Ducksalad plant response rating,duck salad; [11],0
same,Velvetleaf plant response rating,velvetleaf; [1],0
same,Velvetleaf plant response rating,velvetleaf; [2],3
same,"Plant response rating, Velvetleaf",velvetleaf; [3],4
same,Velvetleaf plant response rating,velvetleaf; [4],0
same,Velvetleaf plant response rating,velvetleaf; [5],0
same,Velvetleaf plant response rating,velvetleaf; [6],0
same,"Plant response rating, Velvetleaf",velvetleaf; [7],0
same,S. Flatsedge plant response rating,smallflower flatsedge; [8],0
same,S. Flatsedge plant response rating,smallflower flatsedge; [9],0
same,S. Flatsedge plant response rating,smallflower flatsedge; [10],0
same,S. Flatsedge plant response rating,smallflower flatsedge; [11],4
same,Morningglory plant response rating,morningglory; [1],0
same,Morningglory plant response rating,morningglory; [2],0
same,"Plant response rating, Morningglory",morningglory; [3],0
same,Morningglory plant response rating,morningglory; [4],6
same,Morningglory plant response rating,morningglory; [5],6
same,Morningglory plant response rating,morningglory; [6],0
same,"Plant response rating, Morningglory",morningglory; [7],9
same,Soybean plant response rating,soybean; [1],0
same,Soybean plant response rating,soybean; [2],0
same,"Plant response rating, Soybean",soybean; [3],0
same,Soybean plant response rating,soybean; [4],2
same,Soybean plant response rating,soybean; [5],3
same,Soybean plant response rating,soybean; [6],0
same,"Plant response rating, Soybean",soybean; [7],4
same,Blackgrass plant response rating,blackgrass; [1],0
same,Blackgrass plant response rating,blackgrass; [2],6
same,"Plant response rating, Blackgrass",blackgrass; [3],10
same,Blackgrass plant response rating,blackgrass; [4],0
same,Blackgrass plant response rating,blackgrass; [5],0
same,Blackgrass plant response rating,blackgrass; [6],3
same,"Plant response rating, Blackgrass",blackgrass; [7],7
same,Blackgrass plant response rating,blackgrass; [12],8
same,Wild oats plant response rating,wild oat; [1],0
same,Wild oats plant response rating,wild oat; [2],3
same,"Plant response rating, Wild oats",wild oat; [3],8
same,Wild oats plant response rating,wild oat; [4],0
same,Wild oats plant response rating,wild oat; [5],0
same,"Plant response rating, Wild oats",wild oat; [7],0
same,Redroot pigweed plant response rating,pigweed; [1],0
same,Redroot pigweed plant response rating,pigweed; [2],0
same,"Plant response rating, Redroot pigweed",pigweed; [3],2
same,Redroot pigweed plant response rating,pigweed; [4],0
same,Redroot pigweed plant response rating,pigweed; [5],0
same,Redroot pigweed plant response rating,pigweed; [6],0
same,"Plant response rating, Redroot pigweed",pigweed; [7],0
same,Wheat plant response rating,wheat; [1],0
same,Wheat plant response rating,wheat; [2],0
same,"Plant response rating, Wheat",wheat; [3],0
same,Wheat plant response rating,wheat; [4],0
same,Wheat plant response rating,wheat; [5],0
same,Wheat plant response rating,wheat; [6],0
same,"Plant response rating, Wheat",wheat; [7],0
same,Giant foxtail plant response rating,giant foxtail; [1],7
same,Giant foxtail plant response rating,giant foxtail; [2],10
same,"Plant response rating, Giant foxtail",giant foxtail; [3],10
same,Giant foxtail plant response rating,giant foxtail; [4],0
same,Giant foxtail plant response rating,giant foxtail; [5],0
same,Giant foxtail plant response rating,giant foxtail; [6],9
same,"Plant response rating, Giant foxtail",giant foxtail; [7],2
same,Nutsedge plant response rating,purple nutsedge; [1],0
same,Nutsedge plant response rating,purple nutsedge; [2],0
same,"Plant response rating, Nutsedge",purple nutsedge; [3],0
same,Nutsedge plant response rating,purple nutsedge; [4],0
same,Nutsedge plant response rating,purple nutsedge; [5],0
same,Nutsedge plant response rating,purple nutsedge; [6],0
same,"Plant response rating, Nutsedge",purple nutsedge; [7],0
same,Bedstraw plant response rating,bedstraw; [1],0
same,Bedstraw plant response rating,bedstraw; [2],0
same,"Plant response rating, Bedstraw",bedstraw; [3],0
same,Bedstraw plant response rating,bedstraw; [4],3
same,Bedstraw plant response rating,bedstraw; [5],6
same,Bedstraw plant response rating,bedstraw; [6],0
same,"Plant response rating, Bedstraw",bedstraw; [7],8
same,Bedstraw plant response rating,bedstraw; [12],9
same,Barnyardgrass plant response rating,bamyardgrass; [8],0
same,Barnyardgrass plant response rating,bamyardgrass; [9],3
same,Barnyardgrass plant response rating,bamyardgrass; [10],9
same,Barnyardgrass plant response rating,bamyardgrass; [11],9
same,Rice plant response rating,rice; [8],0
same,Rice plant response rating,rice; [9],0
same,Rice plant response rating,rice; [10],0
same,Rice plant response rating,rice; [11],0
